The term pEC50 denotes the negative decadic logarithm of the EC50, by convention in mol/L. For orientation: CC50 means the concentration at which the toxic effect on the cells reaches its halfway point. The low end stands for greater toxicity to the cells, the high end for lower toxicity to the cells. As usually defined, the thermodynamic solubility is solubility found after equilibrating the solid with the medium.

Consider eleven molecules from patent publication US9233978B2, “6-fused heteroaryldihydropyrimidines for the treatment and prophylaxis of hepatitis B virus infection” (Hoffmann-La Roche Inc., priority 2014, dated 2016).

pEC50: −log10 of the molar value. ≈ marks a conversion by molar mass, not a printed value. Where two headings read alike, the source gives them in different places.

One data set deals with HBV. As to the kind of experiment: Anti-HBV activity in vitro, HepG2.2.15 cells, extracellular HBV DNA by qPCR. The format is cell-based. Conditions: HepG2.2.15 cells, HBV replication inhibited by 50%, extracellular HBV DNA by qPCR, five days after compound treatment, read-out: EC50. An outline of the steps: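 Extracellular HBV DNA in culture supernatant was measured by qPCR after nucleic acid extraction. The supernatant came from constitutively replicating HepG2.2.15 cells exposed for five days to half-log-diluted compounds, with DMSO at 0.5% final. Cells had been plated overnight at 37 °C beforehand.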
Background: In qPCR the cycle at which signal appears reflects the starting amount.

A further data set is described as follows: Lysa solubility. The format is physicochemical. The note with it: 0.05 M phosphate buffer (pH 6.5); for solubility thermodynamic: phosphate buffer, pH 6.5, aqueous buffer, thermodynamic from solid. The protocol: Samples were prepared in duplicate from 10 mM DMSO stock solutions. After evaporation of DMSO with a centrifugal vacuum evaporator, the residue was solved in 0.05 M phosphate buffer (pH 6.5), stirred for one hour and shook for two hours. After one night, the solution was filtered using a microtiter filter plate. Then the filtrate and its 1/10 dilution were analyzed by direct UV measurement or by HPLC-UV. […] The results were in μg/mL. In case the percentage of sample measured in solution after evaporation divided by the calculated maximum of sample amount was over 80%, the solubility was reported as higher than this value.

The nature of data set [1]: Human microsomal metabolic stability. The format is in vitro ADME. Conditions: human microsomes 0.5 mg/mL, 1 μM test compound, NADPH, 37° C., pH 7.4, 0-30 minutes. How it is done:
Human Microsomes (BD Gentest) were preincubated with test compound for 10 minutes at 37° C. in 100 mM phosphate buffer, pH 7.4. The reactions were initiated by adding NADPH or NADPH regenerating system to give a final incubation volume of 400 μL. For NADPH system, the final incubations contained 1 μM test compound, 0.5 mg/mL liver microsomal protein, 1 mM NADPH in 100 mM phosphate buffer, pH 7.4. For the NADPH regenerating system, the final incubations contained 1 μM test compound, 0.5 mg/mL liver microsomal protein, 3 mM glucose 6-phosphate, 1 mM NADP, 3 mM MgCl2 and 0.05 mg/mL glucose 6-phosphate dehydrogenase in 100 mM phosphate buffer, pH 7.4. After incubation times of 0, 3, 6, 9, 15 and 30 minutes at 37° C., 1 sample was obtained from each time point and 50 μL of each sample was removed and transferred to 150 μL of methanol solution which was maintained at 4° C. and contained 2 μM tolbutamide as internal standard. Following precipitation and centrifugation, the amount of compound remaining in the samples were determined by LC-MS/MS. Controls of no NADPH or no NADPH regenerating system at zero and 30 minutes were also prepared and analyzed.

The next data set relates to HepDE19 cells. As to the kind of experiment: Cytotoxicity in HepDE19 cells (CCK-8) and selectivity index. The format is cell-based. Conditions: for Selectivity index (CC50/EC50): CC50 (HepDE19) value / EC50 (HepG2.2.15) value; for CC50: HepDE19 cells, CCK-8 cell viability, five days after treatment. From the text: HepG2.2.15 and HepDE19 are stably-transfected cell lines containing the HBV genome. Both cell lines are derived from the hepatoblastoma cell line Hep G2 (American Type Culture Collection, ATCC® HB-8065™) by the published procedures described in references: MA Selles et al. Proc. Natl. Acad. Sci. USA 1987, 84, 1005-1009 and H Guo et al. Journal of Virology 2007, 81, 12472-12484, respectively. Both cell lines were maintained in Dulbecco's modified Eagle's medium (DMEM)-F12 medium supplemented with 10% fetal bovine serum, 100 U/mL penicillin, 100 μg/mL streptomycin, and 0.5 mg/mL of G418.
HepDE19 cells were seeded into 96-well plates (5×10^3 cells per well) and treated with compounds for EC50 determination. Five days after treatment, cell viability was measured by addition of 20 μL of CCK-8 reagent. Two hours after incubation at 37° C., the absorbance at wavelengths of 450 nm and 630 nm (OD450 and OD630) was recorded by a plate reader. The concentration results in the death of 50% of the host cells (CC50) of each compound were determined.
The relative effectiveness of the compound in inhibiting viral replication compared to inducing cell death was defined as the selectivity index (CC50 value/EC50 value). Based on CC50 and EC50 data, selectivity indexes were determined.

Setting [2] is: Hepatitis B virus, HepG2.2.15, 120 h.

As for `COC(=O)C1=C(CN2CCN3C(=O)N(C4CCC(C(=O)O)C4)C[C@@H]3C2)NC(c2nccs2)=N[C@H]1c1ccc(F)cc1Cl` (mixture of isomers) [Example 63, (R)-6-[(S)-2-((1R,3R)-3-Carboxy-cyclopentyl)-3-oxo-hexahydro-imidazo[1,5-a]pyrazin-7-ylmethyl]-4-(2-chloro-4-fluoro-phenyl)-2-thiazol-2-yl-1,4-dihydro-pyrimidine-5-carboxylic acid methyl ester and (R)-6-[(S)-2-((1S,3S)-3-Carboxy-cyclopentyl)-3-oxo-hexahydro-imidazo[1,5-a]pyrazin-7-ylmethyl]-4-(2-chloro-4-fluoro-phenyl)-2-thiazol-2-yl-1,4-dihydro-pyrimidine-5-carboxylic acid methyl ester], in the data set on HBV, the pEC50 is 7.92. Also, the “Lysa” value in the data set “Lysa solubility” was greater than 751 µg/mL. The “Human Microsomal Clearance” value in data set [1] is reported as 5.3 mL/min/kg. Besides, in the data set on HepDE19 cells, the “Selectivity index (CC50/EC50)” value came to 7583 and the CC50 was determined as 91000 nM.
As to `CCOC(=O)C1=C(CN2CCN3C(=O)N(C4CCC(C(=O)O)C4)C[C@@H]3C2)NC(c2nccs2)=N[C@H]1c1cccc(F)c1Cl` (mixture of isomers) [Example 64, (R)-6-[(S)-2-((1R,3R)-3-Carboxy-cyclopentyl)-3-oxo-hexahydro-imidazo[1,5-a]pyrazin-7-ylmethyl]-4-(2-chloro-3-fluoro-phenyl)-2-thiazol-2-yl-1,4-dihydro-pyrimidine-5-carboxylic acid ethyl ester and (R)-6-[(S)-2-((1S,3S)-3-Carboxy-cyclopentyl)-3-oxo-hexahydro-imidazo[1,5-a]pyrazin-7-ylmethyl]-4-(2-chloro-3-fluoro-phenyl)-2-thiazol-2-yl-1,4-dihydro-pyrimidine-5-carboxylic acid ethyl ester], the pEC50 in the data set with HBV is 8.10. Moreover, the “Lysa” value in “Lysa solubility” is greater than 669 µg/mL. The “Human Microsomal Clearance” value in data set [1] is recorded as 5.6 mL/min/kg. In the data set on HepDE19 cells, the “Selectivity index (CC50/EC50)” value worked out at 8375 and the midpoint of cytotoxicity, the CC50, lay at 67000 nM.
On to `COC(=O)C1=C(CN2CCN3C(=O)N([C@H]4C[C@H](C(=O)O)C4)C[C@@H]3C2)NC(c2nccs2)=N[C@H]1c1ccc(F)cc1Cl` [Example 39, 3-[(2S,8aR)-7-[[(4R)-4-(2-chloro-4-fluoro-phenyl)-5-methoxycarbonyl-2-thiazol-2-yl-1,4-dihydropyrimidin-6-yl]methyl]-3-oxo-5,6,8,8a-tetrahydro-1H-imidazo[1,5-a]pyrazin-2-yl]cyclobutanecarboxylic acid], for which, in the data set with HBV (setting [2]), the pEC50 was 7.52. This molecule returned a solubility (thermodynamic) in the data set “Lysa solubility” greater than 770 µg/mL. The “Human Microsomal Clearance” value in data set [1] was found to be 0.4 mL/min/kg.
`COC(=O)C1=C(CN2CCN3C(=O)N([C@H]4CCC[C@H]4C(=O)O)C[C@@H]3C2)NC(c2nccs2)=N[C@H]1c1ccc(F)cc1Cl` [Example 51, (1R,2S)-2-[(8aS)-7-[[(4R)-4-(2-chloro-4-fluoro-phenyl)-5-methoxycarbonyl-2-thiazol-2-yl-1,4-dihydropyrimidin-6-yl]methyl]-3-oxo-5,6,8,8a-tetrahydro-1H-imidazo[1,5-a]pyrazin-2-yl]cyclopentanecarboxylic acid]: the pEC50 in the data set on HBV (setting [2]) is 7.51. Further, the solubility (thermodynamic) in the data set “Lysa solubility” stood at 589 µg/mL (≈ 954 µM). For the same molecule, the “Human Microsomal Clearance” value in data set [1] is 2.0 mL/min/kg.
Regarding `CCOC(=O)C1=C(CN2CCN3C(=O)N(CCCC(=O)O)C[C@@H]3C2)NC(c2nccs2)=N[C@H]1c1cccc(F)c1Cl` [Example 53, 4-[(8aS)-7-[[(4R)-4-(2-chloro-3-fluoro-phenyl)-5-ethoxycarbonyl-2-thiazol-2-yl-1,4-dihydropyrimidin-6-yl]methyl]-3-oxo-5,6,8,8a-tetrahydro-1H-imidazo[1,5-a]pyrazin-2-yl]butanoic acid], the pEC50 with HBV (setting [2]) is 7.72. The molecule also came in with a thermodynamic solubility in the data set “Lysa solubility” greater than 723 µg/mL. Also, in data set [1], the “Human Microsomal Clearance” value was determined as 5.1 mL/min/kg.
Taken in the same sequence, the figures for `CCOC(=O)C1=C(CN2CCN3C(=O)N(CCOCC(=O)O)CC3C2)NC(c2nccs2)=N[C@H]1c1cccc(F)c1Cl` (stereo partly drawn) [Example 67, 2-[2-[7-[[(4R)-4-(2-chloro-3-fluoro-phenyl)-5-ethoxycarbonyl-2-thiazol-2-yl-1,4-dihydropyrimidin-6-yl]methyl]-3-oxo-5,6,8,8a-tetrahydro-1H-imidazo[1,5-a]pyrazin-2-yl]ethoxy]acetic acid] were 6.36, greater than 794 µg/mL and 4.7 mL/min/kg.
Take `CCOC(=O)C1=C(CN2CCN3C(=O)N(CCCOCC(=O)O)CC3C2)NC(c2nccs2)=N[C@H]1c1cccc(F)c1Cl` (stereo partly drawn) [Example 68, 2-[3-[7-[[(4R)-4-(2-chloro-3-fluoro-phenyl)-5-ethoxycarbonyl-2-thiazol-2-yl-1,4-dihydropyrimidin-6-yl]methyl]-3-oxo-5,6,8,8a-tetrahydro-1H-imidazo[1,5-a]pyrazin-2-yl]propoxy]acetic acid]: in the data set on HBV (setting [2]), the pEC50 was 6.84. In addition, the thermodynamic solubility in “Lysa solubility” was greater than 794 µg/mL. Further, the “Human Microsomal Clearance” value in data set [1] was found to be 4.5 mL/min/kg.
With `COC(=O)C1=C(CN2CCN3C(=O)N(C4CCC(C(=O)O)CC4)C[C@@H]3C2)NC(c2nccs2)=N[C@H]1c1ccc(F)cc1Cl` (stereo partly drawn) [Example 72, 4-[(8aS)-7-[[(4R)-4-(2-chloro-4-fluoro-phenyl)-5-methoxycarbonyl-2-thiazol-2-yl-1,4-dihydropyrimidin-6-yl]methyl]-3-oxo-5,6,8,8a-tetrahydro-1H-imidazo[1,5-a]pyrazin-2-yl]cyclohexanecarboxylic acid], the pEC50 in the data set with HBV (setting [2]) was 8.05. This molecule had a thermodynamic solubility in the data set “Lysa solubility” of 551 µg/mL (≈ 873 µM). For the same molecule, the “Human Microsomal Clearance” value in data set [1] is reported as 5.2 mL/min/kg.
Turning to `COC(=O)C1=C(CN2CCN3C(=O)N(CC(C)(C)C(=O)O)C[C@@H]3C2)NC(c2nccs2)=N[C@H]1c1ccccc1Cl` [Example 74, 3-[(8aS)-7-[[(4R)-4-(2-chlorophenyl)-5-methoxycarbonyl-2-thiazol-2-yl-1,4-dihydropyrimidin-6-yl]methyl]-3-oxo-5,6,8,8a-tetrahydro-1H-imidazo[1,5-a]pyrazin-2-yl]-2,2-dimethyl-propanoic acid], in the data set on HBV (setting [2]), the pEC50 is 7.44. Besides, in “Lysa solubility”, the solubility (thermodynamic) is greater than 716 µg/mL. In addition, the “Human Microsomal Clearance” value in data set [1] was 1.0 mL/min/kg.
Taken in the same sequence, the figures for `CCOC(=O)C1=C(CN2CCN3C(=O)N(CC(OC)C(=O)O)C[C@@H]3C2)NC(c2nccs2)=N[C@H]1c1cccc(F)c1Cl` (stereo partly drawn) [Example 78, 3-[(8aS)-7-[[(4R)-4-(2-chloro-3-fluoro-phenyl)-5-ethoxycarbonyl-2-thiazol-2-yl-1,4-dihydropyrimidin-6-yl]methyl]-3-oxo-5,6,8,8a-tetrahydro-1H-imidazo[1,5-a]pyrazin-2-yl]-2-methoxy-propanoic acid] were 6.41, greater than 793 µg/mL and 6.7 mL/min/kg.
With `COC(=O)C1=C(CN2CCN3C(=O)N(CCCCC(=O)O)C[C@@H]3C2)NC(c2nccs2)=N[C@H]1c1ccc(F)cc1Cl` [Example 80, 5-[(8aS)-7-[[(4R)-4-(2-chloro-4-fluoro-phenyl)-5-methoxycarbonyl-2-thiazol-2-yl-1,4-dihydropyrimidin-6-yl]methyl]-3-oxo-5,6,8,8a-tetrahydro-1H-imidazo[1,5-a]pyrazin-2-yl]pentanoic acid], in the data set with HBV (setting [2]), the negative-log EC50 (pEC50) was 7.49. This molecule also came in with a solubility (thermodynamic) in the data set “Lysa solubility” greater than 616 µg/mL. Besides, in data set [1], the “Human Microsomal Clearance” value amounted to 8.3 mL/min/kg.
